Patent US6811998B2, “Conjugates of uncompetitive inhibitors of inosine monophosphate dehydrogenase” (priority 1999, dated 2004)

Columns and labels:
IMPDH II [1] = target: T1, IMPDH II (Homo sapiens, UniProt P12268); experiment: Inhibition constants of ligand inhibitors: NADH formation at 340 nm, 10 minutes, 40° C.; type: biochemical; conditions: IMPDH II 0.00065 U/ml, non-linear curve fit
IMPDH II [2] = target: T1, IMPDH II; experiment: Homogeneous enzyme immunoassay with ligand-inhibitor conjugate (thyroxine and theophylline); type: biochemical; parameters: made in house; host or cells: E. coli; conditions: compared with MPA-theophylline
Procedure: (§1) An HITACHI 917 analyzer (Roche Diagnostics Corp., Indianapolis) was programmed to dispense 3 μl of sample and 150 μl of antibody reagent into a 37° C. cuvette, which were then mixed and incubated for 5 minutes after which time 150 μl of enzyme reagent was added and mixed. The rate at 340 nm (mA/min) was calculated during the period 3 minutes 13 seconds to 4 minutes 42 seconds (read window 29-34) following enzyme reagent addition.
Saline samples spiked with theophylline were assayed using the method of the present invention. Theophylline (Sigma Chemical) was first dissolved in saline (1 mg/10 ml) and then diluted to achieve concentrations of 0, 5, 10, 20, 40 and 50 μg/ml. An HITACHI 717 analyzer (Roche Diagnostics Corp., Indianapolis) was programmed to dispense 3 μl of sample and 150 μl of first reagent into a 37° C. cuvette, which were then mixed and incubated for 5 minutes, after which time 150 μl of second reagent was added and mixed. The difference in absorbance at 340 nm was calculated from the initial addition of the second reagent to 5 minutes following the second reagent addition.
J. Org. Chem. 61, 2236-2241, (1996).

IMPDH II [3] = target: T1, IMPDH II; experiment: IC50 by slightly different method: enzyme rate on HITACHI 917 as in Examples 20 and 29, no antibody, saline sample; type: biochemical; parameters: made in house; host or cells: E. coli; conditions: values marked *: HITACHI 917 method
Procedure: One liter of an enzyme reagent, or second reagent, was prepared as follows. Approximately 800 ml deionized water was dispensed into a container and 168.8 grams of NaTAPSO was added and completely dissolved. Next, 1.15 grams of TCEP was dissolved. Next 31.4 grams of IMP was dissolved, then 2.23 grams of Na2EDTA were dissolved. Next 1.0 gram of SUTTOCIDE A was dissolved. The volume was adjusted to one liter with deionized water. Enough recombinant human IMPDH-II was added (as a 35% ammonium sulfate precipitate of an E. coli lysate supernatant) and dissolved completely in order to achieve a change in absorbance at 340 nm of 780×10^−4 over 5 minutes at 37° C. […]
as §1
One liter of a second reagent was prepared as follows. […] Enough recombinant human IMPDH-II was added (as a 35% ammonium sulfate precipitate of an E. coli lysate supernatant) and dissolved completely in order to achieve a change in absorbance at 340 nm of 3100×10^−4 over 5 minutes at 37° C. […]

IMPDH = experiment: Sensitivity of mycophenolic acid inhibition of IMPDH; type: biochemical
IMPDH-I = IMPDH-I (Homo sapiens, UniProt P20839); conditions: read-out: Ki (IC50), J. Biol. Chem. 268, 27286-27290 (1993); cited from earlier work
IMPDH-I, sequence (P20839 whole entry): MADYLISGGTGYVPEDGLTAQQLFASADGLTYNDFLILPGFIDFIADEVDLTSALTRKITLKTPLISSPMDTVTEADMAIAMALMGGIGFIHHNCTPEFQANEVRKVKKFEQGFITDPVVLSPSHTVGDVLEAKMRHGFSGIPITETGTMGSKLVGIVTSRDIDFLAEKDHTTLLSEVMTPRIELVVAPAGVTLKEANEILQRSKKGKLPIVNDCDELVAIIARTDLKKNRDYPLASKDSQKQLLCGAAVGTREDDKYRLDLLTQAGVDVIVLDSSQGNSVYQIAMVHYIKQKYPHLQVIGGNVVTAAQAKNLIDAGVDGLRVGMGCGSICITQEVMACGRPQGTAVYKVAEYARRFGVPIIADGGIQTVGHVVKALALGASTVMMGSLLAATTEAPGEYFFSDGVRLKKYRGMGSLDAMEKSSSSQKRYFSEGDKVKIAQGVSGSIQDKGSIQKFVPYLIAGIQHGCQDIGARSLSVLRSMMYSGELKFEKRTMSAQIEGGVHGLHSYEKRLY

IMPDH II [4] = target: T1, IMPDH II; experiment: IMPDH activity as a function of ligand-inhibitor conjugate, antibody and analyte concentration (HITACHI 717, NADH at 340 nm); type: biochemical; parameters: made in house; host or cells: E. coli
Procedure: One liter of an antibody reagent, or first reagent, was prepared as follows. Approximately 800 ml deionized water was dispensed into a container and 6.0 grams of ACES were added and dissolved. The pH was adjusted to 6.0 with 2N NaOH. Then 0.53 grams NAD were added and dissolved completely. Next 10 ml ascites anti-MPA monoclonal antibody was added. Then 0.95 grams sodium azide was added and dissolved, and finally 1.0 gram of SUTTOCIDE A (GAF Chemicals Corp.) was added and dissolved. The volume was adjusted to one liter with deionized water.
One liter of an enzyme reagent, or second reagent, was prepared as follows. Approximately 800 ml deionized water was dispensed into a container and 56.3 grams of NaTAPSO was added and completely dissolved. Then 81.6 grams of sodium acetate-3H2O were added and dissolved. Next, 1.15 grams of TCEP were added and dissolved. Next 0.319 grams of IMP were added and dissolved, then 2.23 grams of Na2EDTA were added and dissolved. Next 1.0 gram of SUTTOCIDE A was added and dissolved. The volume was adjusted to one liter with deionized water. Approximately 13.4 ml of recombinant human IMPDH-II were added (E. coli lysate) and dissolved completely in order to achieve a change in absorbance at 340 nm of 4400×10^−4 over 5 minutes at 37° C. Next 0.002 grams of ligand-inhibitor conjugate (MPA-MPA, Example 42) were added and dissolved.
Human plasma samples spiked with mycophenolic acid were assayed for MPA using the present invention. An HITACHI 717 analyzer (Roche Diagnostics Corp. Indianapolis) was programmed to dispense 3 μl of sample and 150 μl of antibody reagent into a 37° C. cuvette, which were then mixed and incubated for 5 minutes after which time 150 μl of enzyme reagent was added and mixed. The difference in absorbance at 340 nm was calculated from the initial addition of enzyme reagent to 5 minutes following enzyme reagent addition.
With sample set A, the reagents contained no antibody or ligand-inhibitor and produced maximum IMPDH activity. With sample set B, the enzyme reagent contained ligand inhibitor and was used to show the effect of ligand inhibitor on IMPDH activity.

In the case of “5′-(digoxigenin-3-yl-β-amidomethyl)-MPA [16A]”, the IC50 (IMPDH II [1]) is reported as 170 nM.

Compound “5′-(digoxigenin-3-yl-β-amidomethyl)-MPA [16B]” has an IC50 (IMPDH II [1]) of 68 nM.

With “5′-[(digoxigenin-3-yl)-oxymethylcarbonyl-DADOO-carbonylmethyl]-MPA [compound 26]” the IC50 (IMPDH II [1]) was 170 nM.

“5′-[(gentamicin[C1a]-N^1-carbonyl-oxy)-isoprenyl]-MPA” showed an IC50 (IMPDH II [1]) of 660 nM.

Compound “5′-[(gentamicin[C1a]-N^1-terephthaloyl)-amino-isoprenyl]-MPA [U]” has an IC50 (IMPDH II [1]) of 270 nM.

In the case of “5′-[(isoprenyloxycarbonylaminoethyleneamido)-thyroxine]-MPA [compound 11]”, the “sensitivity in an immunoassay” value (IMPDH II [2]) is reported as “greater sensitivity” and the IC50 (IMPDH II [3]) is reported as 83 nM.

“5′-[(phenytoin-3-butyramido)-isoprenyl]-MPA” showed an IC50 (IMPDH II [1]) of 88 nM.

“5′-[(theophylline-8-butyramidoethylaminocarbonyloxy)-isoprenyl]-MPA [compound 20]” showed an IC50 (IMPDH II [3]) of 250 nM.

In the case of `COc1c(C)c2c(c(O)c1C/C=C(\C)CCC(=O)O)C(=O)OC2` [MPA, mycophenolic acid], the “sensitivity of mycophenolic acid inhibition” value (IMPDH) is given as 10 to 20 nM, the Ki (IMPDH-I) is given as 37 nM and the “ΔA × 10^−4 @ 340 nm” value (IMPDH II [4]; set A: sample MPA 5 μg/ml, no anti-MPA, no MPA—MPA) is given as 1939 × 10^−4. The “ΔA × 10^−4 @ 340 nm” value (IMPDH II [4]; set A: sample MPA 10 μg/ml, no anti-MPA, no MPA—MPA) was 541 × 10^−4, the “ΔA × 10^−4 @ 340 nm” value (IMPDH II [4]; set E: sample MPA 5 μg/ml, anti-MPA 1:100, no MPA—MPA) was 4075 × 10^−4 and the “ΔA × 10^−4 @ 340 nm” value (IMPDH II [4]; set E: sample MPA 10 μg/ml, anti-MPA 1:100, no MPA—MPA) was 3667 × 10^−4.

Work on MPA-isoprenyl alcohol [3A] yielded an IC50 (IMPDH II [1]) of 48 nM.

With MPA-isoprenyl alcohol [3B] the IC50 (IMPDH II [1]) was 13 nM.
